Patent US12624068B2, “Exon skipping by peptide nucleic acid derivatives” (OliPass Corporation, priority 2016, dated 2026)
[C(1O2)] = modified PNA monomer acting as cytosine, C(pOq) type, 1O2; [A(5)] = modified PNA monomer acting as adenine, A(p) type, p=5; [G(6)] = modified PNA monomer acting as guanine, G(p) type, p=6; {Fethoc} = N-terminal Fethoc cap; {NH2} = C-terminal amide

Key:
[1] = system: mdx mice; assay: Rotarod test in mdx mice; assay type: in vivo, mouse; conditions: 100 pmole/Kg subcutaneous 3× per week
Description: Given with the exon skipping potential, “DMD-ASO 1” was evaluated in mdx mice for its ability to improve muscle function by rotarod test as described below.
[Grouping] 6 weeks old male mdx mice were trained for rotarod test over a period of 2 weeks, and then randomly assigned into 3 groups of 0 (negative control), 100 and 1,000 pmole/Kg “DMD-ASO 1” based on individual scores by rotarod test in Day 0, i.e., the day of grouping. (N=10 per group)
[ASO Treatment] The injection solutions were prepared by serially diluting the ASO to 20 nM and 200 nM in PBS. Animals were subcutaneously administered with vehicle (PBS, negative control), 20 nM “DMD-ASO 1” (100 pmole/Kg), or 200 nM “DMD-ASO 1” (1,000 pmole/Kg) at 5 mL/Kg, 3× per week over a period of Day 0 to Day 21.
[Rotarod Test and Statistical Analysis] Mice were subjected to rotarod test on a rotarod apparatus (Model #47650, Ugo Basile) with an acceleration schedule of 4 rpm to 45 rpm over 60 seconds. The latency to fall (i.e., the duration that animal remained on the rotarod) was scored for each individual animal. Statistical significance was evaluated by student's t-test against the negative control group.

[2] = system: mdx mice; assay: Unscheduled death, sacrifice or lymphoma in chronically treated mdx mice; assay type: in vivo, mouse
From the text: [Grouping & ASO Treatment] Male mdx mice (7 weeks old) were randomly assigned to 4 groups of 0 (mdx negative control), 10, 50, and 200 pmole/Kg “DMD-ASO 1” based on individual grip strength scores by grip test. (N=12 per group) A satellite group of 12 male C57BL/6 mice (7 weeks old) was included in this study as the wild type negative control group for the full-length dystrophin expression level.
The 50 and 200 pmole/Kg group subcutaneously received “DMD-ASO 1” as dissolved in PBS, 2× per week until the final sacrifice in Week 43. In the meantime, the 10 pmole/Kg group subcutaneously received “DMD-ASO 1” initially 2× per week during Week 0 to 8, and 3× per week afterwards to increase the ASO exposure.
[Miscellaneous Findings] There were three cases of unscheduled sacrifice or death (Weeks 26, 39 and 43) in the mdx negative control group due to a large mass of muscular lymphoma developed most likely by chronic muscular inflammation.
“DMD-ASO 1”, “DMD-ASO 2” and “DMD-ASO 6” were evaluated for their physiological effects in male mdx mice by long term subcutaneous administration. In this evaluation the animals were not subjected to physical tests requiring muscular stress in order to keep the transcription of the dystrophin gene undisturbed by excessive muscular stimulation.
[Animals & Grouping] Male mdx mice (6 weeks old) were randomly assigned to 4 groups of the mdx negative control (no ASO treatment), “DMD-ASO 1” 50 pmole/Kg, “DMD-ASO 2” […], and “DMD-ASO 6” […] based on the body weight. (N=12-13 per group) 12 male C57BL/6 mice (6 weeks old) were adopted as the wild type (WT) negative control group.
[Injection Solutions & ASO Treatment] Aqueous mother stock solutions of the ASOs were serially diluted in PBS to prepare the injection solutions of 25 nM “DMD-ASO 1” for 50 pmole/Kg “DMD-ASO 1”, 5 nM “DMD-ASO 2” for “DMD-ASO 2” 10 pmole/Kg, and 5 nM “DMD-ASO 6” for “DMD-ASO 6” 10 pmole/Kg. The animals were subcutaneously administered with the injection solutions at 2 mL/Kg, 2× per week.

[3] = system: rats with diabetes-induced peripheral neuropathic pain (DPNP); assay: Reversal of allodynia (von Frey) in rats with diabetes-induced peripheral neuropathic pain; assay type: in vivo, rat; conditions: 100 pmole/Kg subcutaneous in Days 11, 13, 15, 17 and 19
Description: “SCN-ASO 7”, “SCN-ASO 8”, “SCN-ASO 21”, “SCN-ASO 35”, “SCN-ASO 36” and “SCN-ASO 37” were evaluated for their ability to reverse the allodynia in rats with diabetes-induced peripheral neuropathic pain (DPNP). In this example, the six SCN9A ASOs targeting a total of five splice sites were evaluated for their ability to reverse the allodynia induced by diabetic neuropathy in rats.
[Induction of DPNP and Grouping] Diabetes was induced in rats by an intraperitoneal injection of streptozotocin at 60 mg/Kg in Day 0. In Day 10, rats with DPNP were randomly assigned to […] of negative control (vehicle only), “SCN-ASO 7” 100 pmole/Kg, “SCN-ASO 8” 100 pmole/Kg, “SCN-ASO 21” 100 pmole/Kg, “SCN-ASO 35” 100 pmole/Kg, “SCN-ASO 36” 100 pmole/Kg, and “SCN-ASO 37” 100 pmole/Kg. The animals were grouped based on the von Frey scores of individual animals in Day 10. (N=8-9 per group) Allodynia was scored using a set of microfilaments (Touch Test®) according to the “Up & Down” method. [J Neurosci. Methods vol 53(1), 55-63 (1994)]
[ASO Treatment and von Frey Scoring] ASO solutions for injection were prepared by serially diluting aqueous mother stock solutions of the SCN9A ASOs to 100 nM in PBS (phosphate buffered saline). Animals were subcutaneously administered with ASO at 1 mL/Kg in Days 11, 13, 15, 17 and 19. Von Frey scoring was carried out 2 hours post dose in Days 11, 13, 15, 17 and 19. Von Frey scoring was additionally performed in Days 21 and 23 in order to assess the duration of the therapeutic activity after the final dosing. Daily von Frey scores were evaluated for statistical significance by student's t-test against the negative control group (vehicle only, i.e., PBS).

Row | Substance | muscle function by rotarod test [1] | premature deaths (unscheduled death or sacrifice) ([2]; DMD-ASO 1 50 pmole/Kg, DMD-ASO 2 or DMD-ASO 6 10 pmole/Kg, subcutaneous 2× per week, 66 weeks) | cases of muscular lymphoma ([2]; chronic 10, 50 or 200 pmole/Kg up to Week 43) | maximum therapeutic efficacy based on the von Frey scores in Day 19 [3]
1 | Fethoc-A(5)GA-G(6)CC(1O2)-TCA-A(5)AA(5)-T-NH2 (antisense AGAGCCTCAAAAT; Fethoc N-cap, C-terminal amide, chemistry not fully specified) [DMD-ASO 1] | showed a strong propensity of improvement, but was not significant | two premature deaths | no cases of lymphoma | 
2 | Fethoc-AC(1O2)T-TA(5)C-G(6)CA-A(5)AA(5)-AC(1O2)A-A(5)-NH2 (ACTTACGCAAAAACAA; all peptide nucleic acid (PNA), [C(1O2)] at 2, 14, [A(5)] at 5, 10, 12, 16, [G(6)] at 7, 5' {Fethoc}, 3' {NH2}; peptide nucleic acid written N to C) [SCN-ASO 7] |  |  |  | ~76%
